Data published in PMC7614683, “A small molecule PI3Kα activator for cardioprotection and neuroregeneration” (Nature, 2023).
Where two headings read alike, the source gives them in different places.

Experiments:
Assay in all cases: SelectScreen Z-LYTE kinase activity assay (SI Table 6)
Format in all cases: biochemical
[1] = molecular target: protein kinases of the Z-LYTE panel (Homo sapiens, UniProt P12931)
How it was run: (§1)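 Single-point profiling, 1 μM 1938; LanthaScreen binding, Adapta or Z-LYTE read-outs; 133 protein + 7 lipid kinases.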

[2] = molecular target: protein kinases of the Z-LYTE panel (Homo sapiens, UniProt P42684)
How it was run: as §1

[3] = molecular target: protein kinases of the Z-LYTE panel (Homo sapiens, UniProt Q7KZI7)
How it was run: as §1

[4] = molecular target: protein kinases of the Z-LYTE panel (Homo sapiens, UniProt P04626)
How it was run: as §1

[5] = molecular target: protein kinases of the Z-LYTE panel (Homo sapiens, UniProt Q05397)
How it was run: as §1

[6] = molecular target: T1, protein kinases of the Z-LYTE panel (Homo sapiens, UniProt O14757)
T1 sequence (O14757 1-476): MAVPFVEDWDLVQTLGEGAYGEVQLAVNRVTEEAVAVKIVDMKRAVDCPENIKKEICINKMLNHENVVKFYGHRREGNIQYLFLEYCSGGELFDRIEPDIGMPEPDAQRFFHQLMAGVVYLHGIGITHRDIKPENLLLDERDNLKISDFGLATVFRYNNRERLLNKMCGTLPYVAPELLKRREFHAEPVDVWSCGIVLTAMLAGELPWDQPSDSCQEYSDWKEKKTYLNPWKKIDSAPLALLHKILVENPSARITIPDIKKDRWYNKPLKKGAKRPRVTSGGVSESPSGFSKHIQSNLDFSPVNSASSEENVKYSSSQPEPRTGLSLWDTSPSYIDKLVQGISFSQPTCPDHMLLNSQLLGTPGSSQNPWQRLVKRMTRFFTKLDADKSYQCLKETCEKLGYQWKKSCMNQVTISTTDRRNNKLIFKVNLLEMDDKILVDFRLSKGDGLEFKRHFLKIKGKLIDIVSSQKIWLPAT
How it was run: as §1

[7] = molecular target: protein kinases of the Z-LYTE panel (Homo sapiens, UniProt P21802)
How it was run: as §1

[8] = molecular target: T2, protein kinases of the Z-LYTE panel (Homo sapiens, UniProt P30530)
T2 sequence (P30530 26-894): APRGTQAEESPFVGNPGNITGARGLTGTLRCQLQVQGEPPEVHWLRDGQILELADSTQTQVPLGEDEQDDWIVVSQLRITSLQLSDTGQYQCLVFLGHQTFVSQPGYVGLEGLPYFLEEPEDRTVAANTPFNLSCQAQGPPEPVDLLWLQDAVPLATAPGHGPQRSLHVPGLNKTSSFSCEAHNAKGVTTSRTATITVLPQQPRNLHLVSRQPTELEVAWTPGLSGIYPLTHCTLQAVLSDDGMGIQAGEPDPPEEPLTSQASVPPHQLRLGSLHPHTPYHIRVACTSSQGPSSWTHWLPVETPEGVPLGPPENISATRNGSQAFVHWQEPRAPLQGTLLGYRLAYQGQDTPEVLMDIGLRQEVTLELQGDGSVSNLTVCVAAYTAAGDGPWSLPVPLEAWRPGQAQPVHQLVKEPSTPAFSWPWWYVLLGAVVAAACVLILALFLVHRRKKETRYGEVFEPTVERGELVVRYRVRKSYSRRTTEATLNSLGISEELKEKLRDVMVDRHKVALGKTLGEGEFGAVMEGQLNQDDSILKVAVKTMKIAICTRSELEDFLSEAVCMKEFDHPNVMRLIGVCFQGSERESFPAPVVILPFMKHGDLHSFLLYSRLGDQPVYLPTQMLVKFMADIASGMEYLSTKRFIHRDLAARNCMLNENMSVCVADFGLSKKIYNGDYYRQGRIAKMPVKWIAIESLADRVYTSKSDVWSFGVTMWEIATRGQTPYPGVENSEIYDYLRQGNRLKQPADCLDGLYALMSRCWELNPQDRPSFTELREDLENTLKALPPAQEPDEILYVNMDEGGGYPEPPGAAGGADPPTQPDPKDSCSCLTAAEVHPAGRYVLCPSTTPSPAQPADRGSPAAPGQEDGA
How it was run: as §1

protein kinases of the Z-LYTE panel (Homo sapiens, UniProt P12931), sequence (P12931 whole entry): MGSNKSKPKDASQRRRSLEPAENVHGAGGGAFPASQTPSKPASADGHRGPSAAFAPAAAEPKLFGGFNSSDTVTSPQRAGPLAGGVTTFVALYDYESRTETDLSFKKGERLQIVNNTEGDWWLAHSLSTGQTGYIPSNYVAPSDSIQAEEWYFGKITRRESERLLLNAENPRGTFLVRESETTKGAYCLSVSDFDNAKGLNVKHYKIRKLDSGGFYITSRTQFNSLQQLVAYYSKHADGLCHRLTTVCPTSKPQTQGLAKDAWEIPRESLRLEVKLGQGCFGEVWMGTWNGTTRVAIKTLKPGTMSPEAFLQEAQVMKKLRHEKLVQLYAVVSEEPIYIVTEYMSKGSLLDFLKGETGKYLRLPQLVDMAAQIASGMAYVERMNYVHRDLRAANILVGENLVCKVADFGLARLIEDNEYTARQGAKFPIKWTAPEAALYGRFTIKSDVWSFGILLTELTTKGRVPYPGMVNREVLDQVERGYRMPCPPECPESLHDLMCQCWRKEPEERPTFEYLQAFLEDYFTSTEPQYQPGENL
protein kinases of the Z-LYTE panel (Homo sapiens, UniProt P21802), sequence (P21802 22-821): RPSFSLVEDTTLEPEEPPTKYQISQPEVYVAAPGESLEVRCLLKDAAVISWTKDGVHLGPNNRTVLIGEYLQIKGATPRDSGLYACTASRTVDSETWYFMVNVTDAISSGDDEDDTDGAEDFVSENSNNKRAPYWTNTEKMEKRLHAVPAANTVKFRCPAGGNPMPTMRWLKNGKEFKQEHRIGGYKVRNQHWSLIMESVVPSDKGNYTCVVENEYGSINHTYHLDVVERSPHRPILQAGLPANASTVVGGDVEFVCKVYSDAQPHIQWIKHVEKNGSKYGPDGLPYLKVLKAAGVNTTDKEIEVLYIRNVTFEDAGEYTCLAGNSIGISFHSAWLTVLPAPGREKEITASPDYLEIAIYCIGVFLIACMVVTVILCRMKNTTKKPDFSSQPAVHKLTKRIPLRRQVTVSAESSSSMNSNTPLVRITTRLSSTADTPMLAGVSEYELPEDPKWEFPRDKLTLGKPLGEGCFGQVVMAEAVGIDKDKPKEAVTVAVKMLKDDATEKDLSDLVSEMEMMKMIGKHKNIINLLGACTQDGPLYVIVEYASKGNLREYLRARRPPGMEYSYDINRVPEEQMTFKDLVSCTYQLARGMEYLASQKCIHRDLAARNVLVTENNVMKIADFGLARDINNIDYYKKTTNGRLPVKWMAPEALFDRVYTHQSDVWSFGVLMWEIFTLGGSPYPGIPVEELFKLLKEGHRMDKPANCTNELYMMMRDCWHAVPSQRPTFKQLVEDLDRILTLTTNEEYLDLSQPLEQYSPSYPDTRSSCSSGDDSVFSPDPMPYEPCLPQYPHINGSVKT
protein kinases of the Z-LYTE panel (Homo sapiens, UniProt Q7KZI7), sequence (Q7KZI7 whole entry): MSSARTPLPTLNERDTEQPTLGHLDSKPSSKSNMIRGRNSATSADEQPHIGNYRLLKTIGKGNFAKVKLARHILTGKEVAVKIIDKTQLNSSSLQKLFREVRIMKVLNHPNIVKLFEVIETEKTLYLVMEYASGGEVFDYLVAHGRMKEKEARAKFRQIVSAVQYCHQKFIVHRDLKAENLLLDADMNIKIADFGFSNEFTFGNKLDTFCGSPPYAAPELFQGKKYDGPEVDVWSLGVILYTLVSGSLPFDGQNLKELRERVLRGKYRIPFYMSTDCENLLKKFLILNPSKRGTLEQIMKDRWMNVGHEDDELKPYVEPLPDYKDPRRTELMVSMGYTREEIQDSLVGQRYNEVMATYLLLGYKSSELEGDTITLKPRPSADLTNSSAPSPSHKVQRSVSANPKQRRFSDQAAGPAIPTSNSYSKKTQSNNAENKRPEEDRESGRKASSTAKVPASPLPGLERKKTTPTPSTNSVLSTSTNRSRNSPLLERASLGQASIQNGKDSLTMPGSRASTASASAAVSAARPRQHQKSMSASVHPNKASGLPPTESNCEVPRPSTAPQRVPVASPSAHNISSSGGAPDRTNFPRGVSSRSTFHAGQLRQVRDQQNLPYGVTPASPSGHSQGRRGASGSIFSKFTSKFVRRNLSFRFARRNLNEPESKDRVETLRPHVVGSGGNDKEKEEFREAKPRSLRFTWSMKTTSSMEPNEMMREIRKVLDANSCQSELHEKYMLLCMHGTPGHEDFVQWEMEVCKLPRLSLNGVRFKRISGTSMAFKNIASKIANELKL
protein kinases of the Z-LYTE panel (Homo sapiens, UniProt P04626), sequence (P04626 23-1255): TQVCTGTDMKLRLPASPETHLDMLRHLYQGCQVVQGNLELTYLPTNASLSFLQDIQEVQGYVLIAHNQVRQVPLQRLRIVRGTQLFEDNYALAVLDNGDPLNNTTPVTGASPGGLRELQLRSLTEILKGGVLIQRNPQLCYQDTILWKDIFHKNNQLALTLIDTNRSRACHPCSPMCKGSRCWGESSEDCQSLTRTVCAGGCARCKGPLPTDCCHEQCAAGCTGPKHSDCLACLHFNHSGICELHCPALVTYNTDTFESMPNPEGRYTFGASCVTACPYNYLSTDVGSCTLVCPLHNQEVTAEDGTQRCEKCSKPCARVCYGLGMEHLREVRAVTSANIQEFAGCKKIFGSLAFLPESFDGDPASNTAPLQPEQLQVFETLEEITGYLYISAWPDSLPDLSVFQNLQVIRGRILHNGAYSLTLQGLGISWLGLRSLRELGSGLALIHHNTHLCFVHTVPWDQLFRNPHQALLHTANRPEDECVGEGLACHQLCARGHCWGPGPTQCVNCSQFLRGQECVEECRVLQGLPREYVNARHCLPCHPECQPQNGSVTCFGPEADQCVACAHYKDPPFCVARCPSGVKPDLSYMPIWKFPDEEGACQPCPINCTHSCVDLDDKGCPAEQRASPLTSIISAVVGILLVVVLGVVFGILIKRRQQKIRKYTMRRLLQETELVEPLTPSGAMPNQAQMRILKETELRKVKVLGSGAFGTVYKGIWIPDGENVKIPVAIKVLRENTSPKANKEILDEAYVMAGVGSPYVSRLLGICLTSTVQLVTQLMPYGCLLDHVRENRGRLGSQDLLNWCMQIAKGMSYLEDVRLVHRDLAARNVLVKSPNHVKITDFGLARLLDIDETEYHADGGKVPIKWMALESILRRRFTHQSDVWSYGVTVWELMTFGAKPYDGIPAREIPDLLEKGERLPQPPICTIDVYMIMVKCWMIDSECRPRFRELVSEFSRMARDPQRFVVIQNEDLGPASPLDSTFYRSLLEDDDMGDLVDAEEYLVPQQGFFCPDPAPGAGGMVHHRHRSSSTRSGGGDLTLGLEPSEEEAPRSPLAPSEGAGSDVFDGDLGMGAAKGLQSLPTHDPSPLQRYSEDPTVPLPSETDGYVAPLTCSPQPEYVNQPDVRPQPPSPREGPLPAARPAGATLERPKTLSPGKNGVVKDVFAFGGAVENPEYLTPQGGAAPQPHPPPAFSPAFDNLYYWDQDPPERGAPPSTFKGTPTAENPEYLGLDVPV
protein kinases of the Z-LYTE panel (Homo sapiens, UniProt P42684), sequence (P42684 whole entry): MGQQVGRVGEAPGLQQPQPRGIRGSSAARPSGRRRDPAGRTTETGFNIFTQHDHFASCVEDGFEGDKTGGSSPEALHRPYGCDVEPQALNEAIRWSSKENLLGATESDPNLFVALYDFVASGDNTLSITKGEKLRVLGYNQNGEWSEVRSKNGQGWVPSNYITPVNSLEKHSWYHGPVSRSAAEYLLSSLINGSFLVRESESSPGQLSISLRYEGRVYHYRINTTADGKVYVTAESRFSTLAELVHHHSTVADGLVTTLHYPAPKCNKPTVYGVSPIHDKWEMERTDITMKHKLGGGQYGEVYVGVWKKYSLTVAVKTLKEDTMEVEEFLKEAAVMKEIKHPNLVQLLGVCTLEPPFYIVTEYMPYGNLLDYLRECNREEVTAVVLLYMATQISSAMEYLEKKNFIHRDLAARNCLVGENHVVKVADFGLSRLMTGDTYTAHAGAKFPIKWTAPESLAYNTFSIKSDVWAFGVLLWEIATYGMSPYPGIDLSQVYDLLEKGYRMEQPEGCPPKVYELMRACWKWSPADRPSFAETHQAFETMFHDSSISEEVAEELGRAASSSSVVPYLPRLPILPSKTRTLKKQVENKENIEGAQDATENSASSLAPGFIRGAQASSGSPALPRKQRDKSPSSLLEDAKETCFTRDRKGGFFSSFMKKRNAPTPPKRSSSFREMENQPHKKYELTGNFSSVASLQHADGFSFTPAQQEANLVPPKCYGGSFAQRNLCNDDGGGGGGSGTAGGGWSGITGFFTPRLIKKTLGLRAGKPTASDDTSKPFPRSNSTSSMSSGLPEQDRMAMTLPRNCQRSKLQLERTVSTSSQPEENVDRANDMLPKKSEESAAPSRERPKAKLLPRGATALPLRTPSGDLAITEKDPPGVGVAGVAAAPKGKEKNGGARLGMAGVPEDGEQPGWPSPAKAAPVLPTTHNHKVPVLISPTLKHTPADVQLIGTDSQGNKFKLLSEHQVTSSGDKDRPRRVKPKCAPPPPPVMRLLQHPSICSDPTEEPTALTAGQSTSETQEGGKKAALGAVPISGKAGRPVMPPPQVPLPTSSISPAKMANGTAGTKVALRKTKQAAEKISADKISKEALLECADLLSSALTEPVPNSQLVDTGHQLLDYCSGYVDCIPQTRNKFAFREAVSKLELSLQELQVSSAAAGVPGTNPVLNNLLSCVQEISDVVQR

Question: How did the inhibition at 1 µM ([1]; read-out: % Inhibition Point 1) turn out when `CCN1CCN(c2ccc(Nc3cc(Nc4cccc5c4N(C(C)=O)CC5)ccn3)cc2)CC1` [Compound 1938] was run?
Answer: 28%

Question: What about the inhibition at 1 µM ([1]; read-out: % Inhibition Point 2) of the same compound?
Answer: 29%

Question: What about the inhibition at 1 µM ([1]; read-out: % Inhibition mean) of the same compound?
Answer: 29%

Question: What about the inhibition at 1 µM ([2]; read-out: % Inhibition Point 1) of the same compound?
Answer: 22%

Question: What about the inhibition at 1 µM ([2]; read-out: % Inhibition Point 2) of the same compound?
Answer: 20%

Question: What about the inhibition at 1 µM ([2]; read-out: % Inhibition mean) of the same compound?
Answer: 21%

Question: What about the inhibition at 1 µM ([3]; read-out: % Inhibition Point 1) of the same compound?
Answer: 6.48%

Question: What about the inhibition at 1 µM ([3]; read-out: % Inhibition Point 2) of the same compound?
Answer: 4%

Question: What about the inhibition at 1 µM ([3]; read-out: % Inhibition mean) of the same compound?
Answer: 5.34%

Question: What about the inhibition at 1 µM ([4]; read-out: % Inhibition Point 1) of the same compound?
Answer: -2.48%

Question: And the inhibition at 1 µM ([4]; read-out: % Inhibition Point 2)?
Answer: 2.33%

Question: What about the inhibition at 1 µM ([4]; read-out: % Inhibition mean) of the same compound?
Answer: -0.0739%

Question: And the inhibition at 1 µM ([5]; read-out: % Inhibition Point 1)?
Answer: 47%

Question: What about the inhibition at 1 µM ([5]; read-out: % Inhibition Point 2) of the same compound?
Answer: 47%

Question: What about the inhibition at 1 µM ([5]; read-out: % Inhibition mean) of the same compound?
Answer: 47%

Question: And the inhibition at 1 µM ([6]; read-out: % Inhibition Point 1)?
Answer: 2%

Question: What about the inhibition at 1 µM ([6]; read-out: % Inhibition Point 2) of the same compound?
Answer: -3.79%

Question: And the inhibition at 1 µM ([6]; read-out: % Inhibition mean)?
Answer: -0.889%

Question: What about the inhibition at 1 µM ([7]; read-out: % Inhibition Point 1) of the same compound?
Answer: 13%

Question: And the inhibition at 1 µM ([7]; read-out: % Inhibition Point 2)?
Answer: 16%

Question: What about the inhibition at 1 µM ([7]; read-out: % Inhibition mean) of the same compound?
Answer: 14%

Question: And the inhibition at 1 µM ([8]; read-out: % Inhibition Point 1)?
Answer: 7%

Question: What about the inhibition at 1 µM ([8]; read-out: % Inhibition Point 2) of the same compound?
Answer: 8%

Question: And the inhibition at 1 µM ([8]; read-out: % Inhibition mean)?
Answer: 7.4%
